The values that follow come from US9085584B2, “Substituted pyrido[3,2-E][1,2,4]-triazolo[4,3-A]pyrazines for the treatment of central nervous system disorders” (Boehringer Ingelheim International GmbH, priority 2012, dated 2015).

In general, IC50 refers to the concentration needed to halve the response being measured.

In one data set the target is PDE 10A (Homo sapiens (Human), UniProt Q9Y233). Put plainly: Radioactive PDE10 assay ([3H]cAMP SPA). The class given is biochemical.
Another data set has as its target PDE 2A (Homo sapiens (Human), UniProt O00408). As to the kind of experiment: PDE 2A assay with fluorescent substrate (IMAP, fluorescence polarization). The note with it: read-out: PDE2 IC50. The class given is biochemical. For orientation: Polarisation of emitted light reports the rotation of a fluorescent probe.
Data set [1] can be described thus: Metabolic stability in pooled liver microsomes. Particulars: human liver microsomes, 1 μM test compound, 37° C. In kind it is in vitro ADME, human. The method, then: The metabolic stability of the compounds according to the invention has been investigated as follows:
The metabolic degradation of the test compound was assayed at 37° C. with pooled liver microsomes from various species. The final incubation volume of 100 μl per time point contains TRIS buffer pH 7.6 at room temperature (0.1 M), magnesium chloride (5 mM), microsomal protein (1 mg/mL for human and dog, 0.5 mg/mL for other species) and the test compound at a final concentration of 1 μM. Following a short preincubation period at 37° C., the reactions were initiated by addition of betanicotinamide adenine dinucleotide phosphate, reduced form (NADPH, 1 mM), and terminated by transferring an aliquot into solvent after different time points. […] The half-life was determined by the slope of the semi-logarithmic plot of the concentration-time profile.
On the technique in general: Liver microsomes are a subcellular fraction often used to study metabolism.

The target of another data set is PDE10 (Homo sapiens (Human), UniProt Q9Y233). As to the kind of experiment: PDE10 assay with fluorescent substrate (IMAP, fluorescence polarization). The class given is biochemical.
PDE10, sequence (Q9Y233 whole entry, species assumed): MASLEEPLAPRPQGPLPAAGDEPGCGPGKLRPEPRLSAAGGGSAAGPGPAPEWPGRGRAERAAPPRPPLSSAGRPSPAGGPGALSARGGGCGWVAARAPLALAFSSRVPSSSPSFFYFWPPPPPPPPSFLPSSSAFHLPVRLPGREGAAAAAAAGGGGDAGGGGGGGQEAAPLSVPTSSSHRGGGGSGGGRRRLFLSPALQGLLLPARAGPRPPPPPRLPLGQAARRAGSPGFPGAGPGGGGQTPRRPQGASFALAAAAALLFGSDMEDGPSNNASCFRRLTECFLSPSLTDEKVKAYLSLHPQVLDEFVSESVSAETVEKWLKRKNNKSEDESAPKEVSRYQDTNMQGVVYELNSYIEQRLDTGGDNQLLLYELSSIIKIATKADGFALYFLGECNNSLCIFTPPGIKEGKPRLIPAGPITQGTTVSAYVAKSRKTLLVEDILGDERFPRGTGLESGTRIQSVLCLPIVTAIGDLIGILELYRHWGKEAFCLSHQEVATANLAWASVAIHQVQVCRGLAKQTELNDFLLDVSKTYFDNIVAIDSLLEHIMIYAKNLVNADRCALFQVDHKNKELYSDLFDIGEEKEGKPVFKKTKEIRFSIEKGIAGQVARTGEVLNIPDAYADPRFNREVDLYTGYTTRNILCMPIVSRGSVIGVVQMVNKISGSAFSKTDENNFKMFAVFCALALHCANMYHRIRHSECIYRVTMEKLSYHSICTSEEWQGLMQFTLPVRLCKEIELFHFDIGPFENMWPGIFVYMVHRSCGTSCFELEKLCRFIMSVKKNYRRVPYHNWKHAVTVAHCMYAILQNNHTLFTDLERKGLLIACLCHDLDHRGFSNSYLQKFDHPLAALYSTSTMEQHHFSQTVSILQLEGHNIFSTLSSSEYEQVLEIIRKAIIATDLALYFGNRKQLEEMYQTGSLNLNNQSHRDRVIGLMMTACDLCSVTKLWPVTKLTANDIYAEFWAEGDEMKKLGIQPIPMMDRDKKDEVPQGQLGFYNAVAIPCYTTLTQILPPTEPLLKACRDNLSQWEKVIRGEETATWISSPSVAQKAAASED
A further data set addresses hERG channel (Homo sapiens (Human), UniProt Q12809). As to the kind of experiment: hERG-channel assay (whole-cell patch clamp, transfected HEK293 cells). The class given is cell-based. The note with it: HEK293 cells stably transfected with hERG cDNA, 35° C. The text has this: hERG (Human Ether-à-go-go-Related Gene)-Channel Assay
hERG channel inhibition of compounds of the present invention has been investigated as follows:
HEK (human embryonic kidney) 293 cells were stably transfected with hERG cDNA.
Cells were superfused with a bath solution containing (mM): NaCl (137), KCl (4.0), MgCl2 (1.0), CaCl2 (1.8), Glucose (10), HEPES (10), pH 7.4 with NaOH. Patch pipettes were made from borosilicate glass tubing using a horizontal puller and filled with pipette solution containing (mM): K-aspartate (130), MgCl2 (5.0), EGTA (5.0), K2ATP (4.0), HEPES (10.0), pH 7.2 with KOH. Resistance of the microelectrodes was in the range between 2 and 5 MΩ.
Stimulation and recording:
Membrane currents were recorded using an EPC-10 patch clamp amplifier and PatchMaster software. hERG-mediated membrane currents were recorded at 35° C., using the whole-cell configuration of the patch-clamp technique. […] During each inter-pulse interval 4 pulses scaled down by a factor of 0.2 were recorded for a P/n leak subtraction procedure. […]
The different concentrations of the test compound were applied sequentially on each of the different cells investigated. A steady state level of baseline current was measured for at least 6 sweeps prior to the application of the first test compound concentration. […]
Peak current amplitudes were measured 3 ms after the ramp to +40 mV. […]
A general note: hERG is a cardiac potassium channel; its block is linked to QT prolongation.

Data set [2] can be described thus: Animal experiments and sample analysis: plasma, brain and CSF concentration. The class given is in vivo. The note with it: rat, 2 h between administration and CSF sampling.
Protocol: In-vivo Effect: Animal Experiments and Sample Analysis (CSF):
Test compounds were administered to animals (rat) different routes at doses of 10.0 or 5 μmol/kg, (both oral and intravenous). After compound administration, the animals were sacrificed in a CO2 chamber and CSF samples were carefully collected by puncture of the cisterna magna. Immediately after CSF sampling, blood was taken by heart puncture and brains were dissected out. Blood was collected in EDTA-coated microvettes and plasma was prepared by centrifugation. Concentration of the test compounds in plasma, CSF or brain homogenate was determined using HPLC-MS-MS.

The structures appear in SMILES notation. Some results are limits rather than exact numbers.

PDE 2A, sequence (O00408 whole entry, species assumed): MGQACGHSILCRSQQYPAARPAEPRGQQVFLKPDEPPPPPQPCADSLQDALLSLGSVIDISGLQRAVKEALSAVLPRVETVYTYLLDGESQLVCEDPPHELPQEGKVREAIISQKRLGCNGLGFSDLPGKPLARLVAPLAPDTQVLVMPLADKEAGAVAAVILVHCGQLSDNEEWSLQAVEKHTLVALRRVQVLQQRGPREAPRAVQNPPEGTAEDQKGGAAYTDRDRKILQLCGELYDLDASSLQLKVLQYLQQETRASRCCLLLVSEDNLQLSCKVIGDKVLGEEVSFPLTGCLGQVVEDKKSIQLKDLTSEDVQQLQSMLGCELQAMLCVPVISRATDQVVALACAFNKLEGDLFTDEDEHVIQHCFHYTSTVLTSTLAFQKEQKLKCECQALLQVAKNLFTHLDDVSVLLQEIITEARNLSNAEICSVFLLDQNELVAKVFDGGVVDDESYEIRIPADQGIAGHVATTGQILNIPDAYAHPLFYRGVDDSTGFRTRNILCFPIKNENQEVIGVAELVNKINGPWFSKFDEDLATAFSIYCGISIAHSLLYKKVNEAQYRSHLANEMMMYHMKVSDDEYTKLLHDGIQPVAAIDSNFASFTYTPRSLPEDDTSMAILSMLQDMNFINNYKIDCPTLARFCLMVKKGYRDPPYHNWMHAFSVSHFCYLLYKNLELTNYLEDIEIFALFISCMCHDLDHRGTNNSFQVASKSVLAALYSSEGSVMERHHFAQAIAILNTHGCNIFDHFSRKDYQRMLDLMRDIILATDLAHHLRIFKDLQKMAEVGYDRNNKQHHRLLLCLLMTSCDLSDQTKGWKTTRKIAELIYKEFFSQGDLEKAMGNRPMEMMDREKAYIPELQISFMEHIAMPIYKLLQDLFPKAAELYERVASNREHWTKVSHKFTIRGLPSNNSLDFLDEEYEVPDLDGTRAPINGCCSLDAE
hERG channel, sequence (Q12809 whole entry): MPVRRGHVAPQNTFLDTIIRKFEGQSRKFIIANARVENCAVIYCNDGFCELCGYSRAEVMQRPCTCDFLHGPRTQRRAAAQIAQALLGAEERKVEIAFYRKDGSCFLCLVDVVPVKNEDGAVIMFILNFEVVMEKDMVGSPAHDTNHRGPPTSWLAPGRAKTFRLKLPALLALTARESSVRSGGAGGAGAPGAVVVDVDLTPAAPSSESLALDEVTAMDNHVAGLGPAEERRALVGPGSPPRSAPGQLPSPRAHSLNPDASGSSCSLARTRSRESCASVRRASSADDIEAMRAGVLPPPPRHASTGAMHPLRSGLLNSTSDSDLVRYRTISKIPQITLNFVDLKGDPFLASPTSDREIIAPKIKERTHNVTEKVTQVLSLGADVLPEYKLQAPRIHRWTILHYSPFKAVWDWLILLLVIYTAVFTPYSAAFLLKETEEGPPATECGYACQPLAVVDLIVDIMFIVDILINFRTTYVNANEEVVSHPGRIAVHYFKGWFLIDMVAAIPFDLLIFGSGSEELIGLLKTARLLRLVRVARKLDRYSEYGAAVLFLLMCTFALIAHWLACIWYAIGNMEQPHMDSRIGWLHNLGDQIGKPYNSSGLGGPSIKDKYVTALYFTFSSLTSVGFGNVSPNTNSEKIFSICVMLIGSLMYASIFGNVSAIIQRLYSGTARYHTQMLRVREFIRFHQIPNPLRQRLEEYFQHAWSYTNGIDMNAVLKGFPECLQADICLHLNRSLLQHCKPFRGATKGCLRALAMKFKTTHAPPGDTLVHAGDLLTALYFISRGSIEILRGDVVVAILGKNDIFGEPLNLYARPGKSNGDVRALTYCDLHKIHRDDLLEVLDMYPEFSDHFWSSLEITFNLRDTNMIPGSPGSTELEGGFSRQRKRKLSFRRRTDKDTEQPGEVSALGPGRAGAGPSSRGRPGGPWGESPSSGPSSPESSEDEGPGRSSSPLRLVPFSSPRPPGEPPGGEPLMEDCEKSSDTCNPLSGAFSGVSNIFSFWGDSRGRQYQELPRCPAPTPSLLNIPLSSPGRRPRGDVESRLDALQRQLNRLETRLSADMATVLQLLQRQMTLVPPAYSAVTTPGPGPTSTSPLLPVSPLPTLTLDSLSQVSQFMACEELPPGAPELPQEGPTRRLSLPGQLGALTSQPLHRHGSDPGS
PDE 10A, sequence (Q9Y233 whole entry, species assumed): as the sequence (Q9Y233 whole entry, species assumed) above
Protocol for PDE 10A: Into a 384 well plate (OptiPlate, white), the following components are pipetted (either manually or using automated pipetting devices): • 20 μl test-compound solution (test compound diluted in assay buffer at twofold the desired concentration) • +10 μl PDE 10A preparation (enzyme diluted in assay buffer to a concentration of 0.3 ng/μl protein) • +10 μl cAMP tracer (diluted in assay buffer to a concentration of 80 nM cAMP, specific activity ˜4 mCi/I)
After addition of all 3 components the plates are shortly spun and incubated at room temperature for 60 min. The reaction is stopped by the addition of 20 μl Yttrium SPA PDE Beads containing 18 mM zinc sulphate in water
PDE 10A protein is expressed upon baculovirus infection in SF9 cells. The cells have been incubated upon infection for ˜3 days and protein production was confirmed by Western Blot. The cells were collected by centrifugation and the pellet frozen in liquid nitrogen before it was resuspended in PBS containing 1% Triton X-100 and protease inhibitors. After 45 min incubation on ice, the cell debris was removed by centrifugation (13.000 rpm, 30 min).
Protocol for PDE 2A: Another, non radioactive, in-vitro assay was performed as follows • c) Phosphodiesterase (PDE) 2A and 10 Assay with Fluorescent Substrate Assay Principle:
The PDE reaction cleaves cAMP to AMP. The IMAP system (Molecular Device) using fluorescence polarization (FP) as detection principle was used to measure enzyme activity. A fluorescent labeled cAMP was used as substrate for the reaction, generating a labeled AMP. The fluorescent AMP binds specifically to the large M(III)-based nano-particles which reduces the rotational speed of the substrate and thus increases its polarization.
The inhibition of PDE 2A or 10 enzyme activity was assessed using IMAP-Phosphodiesterase-cAMP fluorescence labeled substrate (Molecular Devices, Order No. R7506), IMAP TR-FRET screening express (Molecular Devices, Order No. R8160, the TR-FRET component will not be used) and PDE 2A or PDE10 protein expressed upon baculovirus infection in SF9 cells.
All reactions were performed in 384 well plates, Perkin Elmer black optiplates and IMAP reaction buffer with 0.1% Tween20 (kit component)
Compounds were serial diluted in DMSO. With an intermediate dilution step with reaction buffer DMSO concentration was reduced to achieve 1% DMSO in the assay reaction. Setup of the assay started with 10 μl enzyme (˜10 ng/well, depending on prep. batch), 5 μl compound, reaction was started by addition of 5 μl labeled cAMP (30 nM, final concentration), immediately mixed for 15 seconds on a Eppendorf mixmate (2000 rpm) followed by an incubation at room temperature for 90 minutes in the dark. Reaction is stopped by adding of 60 μl binding buffer for FP/cAMP (kit component).
Each assay plate contained wells with vehicle controls (1% DMSO) for the measurement of non-inhibited reaction (=100% control) and wells without enzyme as 0% controls.

As to `Cc1nc2cccnc2n2c(-c3cc(OCCO)ccc3Cl)nnc12` [Example 15], the IC50 on PDE 10A is above 10 µM.

Regarding `Cc1nc2cccnc2n2c(-c3cc(OC4COCC4O)ccc3Cl)nnc12` (racemic) [Example 55], the IC50 came to 0.08 µM at PDE 2A and 5.3 µM against PDE10. Moreover, in data set [1], the “Half-life - t½” value worked out at 2.17 h.

Regarding `Cc1nc2ccc(C3CC3)nc2n2c(-c3cc(OC[C@H](C)O)ccc3Cl)nnc12` [Example 35a], the IC50 against hERG channel is above 10 µM. The “Half-life - t½” value in data set [1] turned out to be 2.17 h.

On to `Cc1nc2ccc(C(F)(F)F)nc2n2c(-c3cc(OC4COCC4O)ccc3Cl)nnc12` (racemic) [Example 111], for which the IC50 is 0.022 µM at PDE 2A and 3.98 µM at PDE10.

Consider `Cc1nc2ccc(C(F)(F)F)nc2n2c(-c3cc(C4(O)CCOC4)ccc3Cl)nnc12` (single isomer, unassigned) [Example 115b], for which the IC50 at PDE 2A was found to be 0.045 µM; against PDE10, 10 µM.

Take `Cc1ccc(C(C)(C)O)cc1-c1nnc2c(C)nc3ccc(C4CC4)nc3n12` [Example 75]: in data set [2], the “conc CSF” value is 0.031 µM, the conc brain was found to be 0.383 µM and the conc plasma was found to be 1.13 µM. In data set [1], the “Half-life - t½” value was 2.17 h.

Take `Cc1nc2cccnc2n2c(-c3cc(C4(O)CCCOC4)ccc3Cl)nnc12` (racemic) [Example 112]: the IC50 turned out to be 0.018 µM on PDE 2A and 7 µM on PDE10.

As to `Cc1nc2cccnc2n2c(-c3cc(C4(O)CCCOC4)ccc3Cl)nnc12` (single isomer, unassigned) [Example 112a], the results for the IC50 on PDE 2A and at PDE10 were 0.025 µM and 2.6 µM, respectively.
